From patent US9605022B2, “Macrocyclic compounds for inhibition of inhibitors of apoptosis” (Ensemble Therapeutics Corporation, priority 2012, dated 2017)

Assays:
[1] = target: XIAP BIR3 (His-BIR3 (241-356, XIAP)) (Homo sapiens (Human), UniProt P98170); assay: XIAP-BIR3/SMAC Homogeneous Time Resolved Fluorescence (HTRF) Assay; format: binding; conditions: 1 nM N-His-BIR3, 5 nM fluorescein labeled SMAC peptide; read-out: XIAP BIR3 FRET IC50
[2] = target: XIAP BIR2-3 (His-BIR2-3 (125-356, C202A/C213G, XIAP)) (Homo sapiens (Human), UniProt P98170, C202A/C213G); assay: XIAP-BIR2-3 Dimeric SMAC Peptide Homogeneous Time Resolved Fluorescence (HTRF) Assay; format: binding; conditions: 0.5 nM N-His-BIR2-3, 20 nM fluorescein labeled dimeric SMAC peptide; read-out: XIAP BIR2-3 FRET IC50
XIAP BIR2-3 (His-BIR2-3 (125-356, C202A/C213G, XIAP)), sequence (P98170 125-356 C202A/C213G): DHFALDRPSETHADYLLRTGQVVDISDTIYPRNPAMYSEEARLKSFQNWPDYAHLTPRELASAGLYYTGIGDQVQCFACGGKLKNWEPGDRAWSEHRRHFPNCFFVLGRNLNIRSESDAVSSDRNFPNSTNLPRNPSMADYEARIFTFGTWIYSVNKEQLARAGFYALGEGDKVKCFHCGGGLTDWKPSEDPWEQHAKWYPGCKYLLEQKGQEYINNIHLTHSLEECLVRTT

XIAP BIR3 (His-BIR3 (241-356, XIAP)), sequence (P98170 241-356): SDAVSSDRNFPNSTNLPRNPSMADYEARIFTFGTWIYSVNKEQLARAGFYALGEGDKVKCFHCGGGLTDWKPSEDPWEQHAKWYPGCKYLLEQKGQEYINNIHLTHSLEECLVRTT

Compound | IC50 [1] | IC50 [2]
CN[C@@H](C)C(=O)N[C@H](C(=O)N1CC[C@@H]2[C@H]1C(=O)N[C@@H](Cc1ccc3ccccc3c1)C(=O)N[C@H](C(=O)O)Cc1ccc(cc1)OCc1cn(nn1)[C@@H]1CCN(C(=O)[C@@H](NC(=O)[C@H](C)NC)C(C)(C)C)[C@@H]1C(=O)N[C@@H](Cc1ccc3ccccc3c1)C(=O)N[C@H](c1nnn[nH]1)Cc1ccc(cc1)OCc1cn2nn1)C(C)(C)C (single isomer, unassigned) [Example 15] | 1.9 nM | 0.3 nM
CN[C@@H](C)C(=O)N[C@H](C(=O)N1CC[C@@H]2[C@H]1C(=O)N[C@@H](Cc1ccc3ccccc3c1)C(=O)N[C@H](C(=O)O)Cc1ccc(cc1)OCc1cn(nn1)[C@@H]1CCN(C(=O)[C@@H](NC(=O)[C@H](C)NC)C(C)(C)C)[C@@H]1C(=O)N[C@@H](Cc1ccc3ccccc3c1)C(=O)N[C@H](c1nnn[nH]1)Cc1ccc(cc1)OCc1cn2nn1)C(C)(C)C (single isomer, unassigned) [Example 16] | 4.4 nM | 2.2 nM
CN[C@@H](C)C(=O)N[C@H](C(=O)N1CC[C@@H]2[C@H]1C(=O)N[C@@H](Cc1ccc3ccccc3c1)C(=O)N[C@H](C(=O)O)Cc1ccc(cc1)OCc1cn(nn1)[C@@H]1CCN(C(=O)[C@@H](NC(=O)[C@H](C)NC)C(C)(C)C)[C@@H]1C(=O)N[C@@H](Cc1ccc3ccccc3c1)C(=O)N[C@H](C(=O)O)c1ccc(cc1)OCc1cn2nn1)C(C)(C)C [Example 1] | 4.9 nM | 1.1 nM
CN[C@@H](C)C(=O)N[C@H](C(=O)N1CC[C@H]2OCc3cn(nn3)CCC[C@H](C(=O)O)NC(=O)[C@H](Cc3ccc4ccccc4c3)NC(=O)[C@@H]3[C@@H](CCN3C(=O)[C@@H](NC(=O)[C@H](C)NC)C(C)(C)C)OCc3cn(nn3)CCC[C@H](C(=O)O)NC(=O)[C@H](Cc3ccc4ccccc4c3)NC(=O)[C@H]21)C(C)(C)C [Example 3] | 1.9 nM | 0.8 nM
CN[C@@H](C)C(=O)N[C@H](C(=O)N1CC[C@H]2OCc3cn(nn3)[C@H](C(=O)O)CCNC(=O)[C@H](Cc3ccc4ccccc4c3)NC(=O)[C@@H]3[C@@H](CCN3C(=O)[C@@H](NC(=O)[C@H](C)NC)C(C)(C)C)OCc3cn(nn3)[C@H](C(=O)O)CCNC(=O)[C@H](Cc3ccc4ccccc4c3)NC(=O)[C@H]21)C(C)(C)C [Example 4] | 57.8 nM | 1.6 nM
CN[C@@H](C)C(=O)N[C@H](C(=O)N1CC[C@@H]2[C@H]1[C@@H](Cc1ccc3ccccc3c1)C(=O)N[C@H](C(=O)O)Cc1ccc(cc1)OCc1cn(nn1)[C@@H]1CCN(C(=O)[C@@H](NC(=O)[C@H](C)NC)C(C)(C)C)[C@@H]1C(=O)C[C@@H](Cc1ccc3ccccc3c1)C(=O)N[C@H](C(=O)OC)Cc1ccc(cc1)OCc1cn2nn1)C(C)(C)C [Example 7] | 29 nM | 6.5 nM
CN[C@@H](C)C(=O)N[C@H](C(=O)N1CC[C@@H]2[C@H]1C(=O)N[C@@H](Cc1ccc3ccccc3c1)C(=O)N[C@H](C(=O)O)Cc1ccc(cc1)OCc1cn(nn1)[C@@H]1CCN(C(=O)[C@@H](NC(=O)[C@H](C)NC)C(C)(C)C)[C@@H]1C(=O)N[C@@H](Cc1ccc3ccccc3c1)C(=O)N[C@H](C(=O)NS(=O)(=O)c1ccccn1)Cc1ccc(cc1)OCc1cn2nn1)C(C)(C)C [Example 10] | 63.1 nM | 16.9 nM
CN[C@@H](C)C(=O)N[C@H](C(=O)N1CC[C@@H]2[C@H]1C(=O)N[C@@H](Cc1ccc3ccccc3c1)C(=O)N[C@H](C(=O)O)Cc1ccc(cc1)OCc1cn(nn1)[C@@H]1CCN(C(=O)[C@@H](NC(=O)[C@H](C)NC)C(C)(C)C)[C@@H]1C(=O)N[C@@H](Cc1ccc3ccccc3c1)C(=O)N[C@H](C(=O)NS(=O)(=O)C1CC1)Cc1ccc(cc1)OCc1cn2nn1)C(C)(C)C [Example 11] | 10.3 nM | 1.3 nM
CN[C@@H](C)C(=O)N[C@H](C(=O)N1CC[C@@H]2[C@H]1C(=O)NC(=O)C[C@@H](Cc1ccc3ccccc3c1)C(=O)N[C@H](C(=O)O)Cc1ccc(cc1)OCc1cn(nn1)[C@@H]1CCN(C(=O)[C@@H](NC(=O)[C@H](C)NC)C(C)(C)C)[C@@H]1C(=O)N[C@@H](Cc1ccc3ccccc3c1)C(=O)N[C@H](c1n[nH]c(=O)o1)Cc1ccc(cc1)OCc1cn2nn1)C(C)(C)C [Example 14] | 8.6 nM | 1.3 nM
CN[C@@H](C)C(=O)N[C@H](C(=O)N1CC[C@@H]2[C@H]1C(=O)N[C@@H](Cc1ccc3ccccc3c1)C(=O)N[C@H](C(=O)O)Cc1ccc(cc1)OCc1cn(nn1)[C@@H]1CCN(C(=O)[C@@H](NC(=O)[C@H](C)NC)C(C)(C)C)[C@@H]1C(=O)N[C@@H](Cc1ccc3ccccc3c1)C(=O)N[C@H](c1nc(=S)o[nH]1)Cc1ccc(cc1)OCc1cn2nn1)C(C)(C)C [Example 17] | 3.2 nM | 0.8 nM
CN[C@@H](C)C(=O)N[C@H](C(=O)N1CC[C@@H]2[C@H]1C(=O)N[C@@H](Cc1ccc3ccccc3c1)C(=O)N[C@H](C(=O)O)Cc1ccc(cc1)OCc1cn(nn1)[C@@H]1CCN(C(=O)[C@@H](NC(=O)[C@H](C)NC)C(C)(C)C)[C@@H]1C(=O)N[C@@H](Cc1ccc3ccccc3c1)C(=O)N[C@H](c1nc(=S)o[nH]1)Cc1ccc(cc1)OCc1cn2nn1)C(C)(C)C [Example 18] | – | 2.2 nM
CN[C@@H](C)C(=O)N[C@H](C(=O)N1CC[C@@H]2[C@H]1C(=O)N[C@@H](Cc1ccc3ccccc3c1)C(=O)N[C@H](C(=O)O)Cc1ccc(cc1)OCc1cn(nn1)[C@@H]1CCN(C(=O)[C@@H](NC(=O)[C@H](C)NC)C(C)(C)C)[C@@H]1C(=O)N[C@@H](Cc1ccc3ccccc3c1)C(=O)N[C@H](c1nc(=O)o[nH]1)Cc1ccc(cc1)OCc1cn2nn1)C(C)(C)C [Example 19] | 2 nM | 0.4 nM
CN[C@@H](C)C(=O)N[C@H](C(=O)N1CC[C@@H]2[C@H]1C(=O)N[C@@H](Cc1ccc3ccccc3c1)C(=O)N[C@H](C(=O)O)Cc1ccc(cc1)OCc1cn(nn1)[C@@H]1CCN(C(=O)[C@@H](NC(=O)[C@H](C)NC)C(C)(C)C)[C@@H]1C(=O)N[C@@H](Cc1ccc3ccccc3c1)C(=O)N[C@H](c1nc(=O)o[nH]1)Cc1ccc(cc1)OCc1cn2nn1)C(C)(C)C [Example 20] | 10.1 nM | 2.9 nM
